MIC, CC50 and selectivity ratio data for 41 compounds are collected here from ChEMBL document CHEMBL2434836, “Studies on substituted benzo[h]quinazolines, benzo[g]indazoles, pyrazoles, 2,6-diarylpyridines as anti-tubercular agents” (Bioorg Med Chem Lett, 2013).

Series [1] concerns Mycobacterium tuberculosis. In words: Antitubercular activity against Mycobacterium tuberculosis H37Rv assessed as growth inhibition by micro plate alamar blue assay. It is filed as functional. For orientation: Resazurin is reduced to fluorescent resorufin, in cell work by metabolically active cells.
Series [2] in a line: Cytotoxicity against human THP1 cells after 24 hrs by MTT assay. It is filed as cell-based, THP-1.
A short description of series [3]: Safety index, ratio of CC50 for human THP1 cells to MIC for Mycobacterium tuberculosis H37Rv. It is filed as toxicity, cell-based, THP-1.

In general, MIC refers to the lowest concentration found to suppress growth. Consider `CC1=NN(C(=O)c2cc(-c3ccc(Cl)cc3)n[nH]2)C(=O)/C1=N/Nc1cccc(F)c1`, for which, in series [1], the MIC worked out at 0.35 µg/mL.

Regarding `COc1ccc2c(c1)CCc1c(-c3ccc(O)cc3)nc(N)nc1-2`, the minimum inhibitory concentration (MIC) in series [1] was above 200 µM.

What is called CC50 is the concentration that lowers cell viability or growth by half. A higher CC50 goes with better tolerance by the cells. For `COc1ccc2c(c1)CCc1c(-c3ccc(OCCN4CCCCC4)cc3)nc(N)nc1-2`, in series [1], the minimum inhibitory concentration (MIC) was 50 µM. The compound further showed a CC50 at 24 h in series [2] of 200 µM.

Consider `COc1ccc2c(c1)CCc1c(-c3ccc(OCCN4CCCC4)cc3)nc(N)nc1-2`, for which the MIC in series [1] came to 200 µM.

Take `COc1ccc2c(c1)CCc1c(-c3ccc(OCCN(C)C)cc3)nc(N)nc1-2`: in series [1], the minimal inhibitory concentration (MIC) is 100 µM. The same compound had a CC50 at 24 h in series [2] of 200 µM.

As for `COc1ccc2c(c1)CCc1c(-c3ccc(OC(C)CN(C)C)cc3)nc(N)nc1-2` (configuration not stated), the MIC in series [1] was 200 µM.

For the compound `CCOC(=O)CCCOc1ccc(-c2nc(N)nc3c2CCc2cc(OC)ccc2-3)cc1`, the MIC in series [1] is 50 µM. Also, the CC50 at 24 h in series [2] came to 200 µM.

For the compound `CCOC(=O)CCCCOc1ccc(-c2nc(N)nc3c2CCc2cc(OC)ccc2-3)cc1`, in series [1], the MIC was determined as 200 µM.

As to `CCOC(=O)CCCCCOc1ccc(-c2nc(N)nc3c2CCc2cc(OC)ccc2-3)cc1`, the MIC in series [1] is 200 µM.

Take `COc1ccc2c(c1)CCc1c(-c3ccc(OCCCC(=O)NN)cc3)nc(N)nc1-2`: the MIC in series [1] was found to be 200 µM.

`COc1ccc2c(c1)CCc1c(-c3ccc(OCCCCC(=O)NN)cc3)nc(N)nc1-2`: in series [1], the MIC was 200 µM.

In the case of `COc1ccc2c(c1)CCc1c(-c3ccc(OCCCCCC(=O)NN)cc3)nc(N)nc1-2`, the MIC in series [1] turned out to be 200 µM.

On to `COc1ccc2c(c1)CCC1C2=NN(C(C)=O)C1c1ccc(O)cc1` (configuration not stated), for which the minimum inhibitory concentration (MIC) in series [1] is above 200 µM.

Consider `COc1ccc2c(c1)CCC1C2=NN(C(C)=O)C1c1ccc(OCCN2CCCCC2)cc1` (configuration not stated), for which, in series [1], the minimal inhibitory concentration (MIC) is above 200 µM.

On to `COc1ccc2c(c1)CCC1C2=NN(C(C)=O)C1c1ccc(OCCN2CCCC2)cc1` (configuration not stated), for which, in series [1], the minimum inhibitory concentration (MIC) came out at 200 µM.

Turning to `COc1ccc2c(c1)CCC1C2=NN(C(C)=O)C1c1ccc(OCCN(C)C)cc1` (configuration not stated), the MIC in series [1] was 200 µM.

Turning to `COc1ccc2c(c1)CCC1C2=NN(C(C)=O)C1c1ccc(OC(C)CN(C)C)cc1` (configuration not stated), the MIC in series [1] worked out at 200 µM.

Take `CCN(CC)CCOc1ccc(C2C3CCc4cc(OC)ccc4C3=NN2C(C)=O)cc1` (configuration not stated): in series [1], the MIC came out at 200 µM.

As to `N#Cc1c(N2CCCCC2)cc(-c2ccc(Br)cc2)nc1-c1ccccc1`, in series [1], the MIC is above 200 µM.

In the case of `N#Cc1c(N2CCCCC2)cc(-c2ccc(Cl)cc2)nc1-c1ccccc1`, the minimal inhibitory concentration (MIC) in series [1] was above 200 µM.

In the case of `Cc1ccc(-c2cc(N3CCCCC3)c(C#N)c(-c3ccccc3)n2)cc1`, in series [1], the minimum inhibitory concentration (MIC) is above 200 µM.

As to `COc1ccc(-c2cc(N3CCCCC3)c(C#N)c(-c3ccccc3)n2)cc1`, the MIC in series [1] is above 200 µM.

For the compound `N#Cc1c(N2CCCCC2)cc(-c2ccccc2)nc1-c1ccccc1`, in series [1], the minimum inhibitory concentration (MIC) was above 200 µM.

With `Cc1ccc(-c2cc(N3CCOCC3)c(C#N)c(-c3ccccc3)n2)cc1`, the MIC in series [1] was above 200 µM.

For `NC(=O)c1c(N2CCCCC2)cc(-c2ccc(Br)cc2)nc1-c1ccccc1`, in series [1], the MIC was above 200 µM.

For `CCOC(=O)/C(C#N)=C(\CC(=O)c1ccccc1)N1CCCCC1`, the MIC in series [1] was above 200 µM.

As to `N#CCc1cc(-c2ccc(Br)cc2)[nH]n1`, the selectivity ratio in series [3] stood at 8. Further, the MIC in series [1] is 25 µM. Moreover, the CC50 at 24 h in series [2] is above 200 µM.

In the case of `N#CCc1cc(-c2ccc(Cl)cc2)[nH]n1`, in series [1], the MIC was above 200 µM.

As to `Cc1ccc(-c2cc(CC#N)n[nH]2)cc1`, in series [1], the MIC is above 200 µM.

Take `COc1ccc(-c2cc(CC#N)n[nH]2)cc1`: in series [1], the MIC is 200 µM.

For `CN(C)/C=C(\C#N)c1cc(-c2ccc(Br)cc2)[nH]n1`, the MIC in series [1] was above 200 µM.

As to `CN(C)/C=C(\C#N)c1cc(-c2ccc(Cl)cc2)[nH]n1`, the MIC in series [1] is above 200 µM.

As for `Cc1ccc(-c2cc(/C(C#N)=C/N(C)C)n[nH]2)cc1`, in series [1], the MIC is above 200 µM.

Turning to `COc1ccc(-c2cc(/C(C#N)=C/N(C)C)n[nH]2)cc1`, the minimal inhibitory concentration (MIC) in series [1] is 100 µM. Besides, the half-maximal cytotoxic concentration (CC50) at 24 h in series [2] is above 200 µM.

As to `CN(C)/C=C(\C#N)c1cc(-c2ccccc2)[nH]n1`, the MIC in series [1] turned out to be 200 µM.

`O=c1nc2ccccn2cc1-c1cc(-c2ccccc2)[nH]n1`: the MIC in series [1] is above 200 µM.

`COc1ccc(-c2cc3ccnc(-c4ccccc4)n3n2)cc1`: the MIC in series [1] was above 200 µM.

Consider `CCSc1nc(Cl)c(C#N)c(-c2ccc(F)cc2F)n1`, for which the minimum inhibitory concentration (MIC) in series [1] amounted to 0.78 µg/mL.

`NNC(=O)c1ccncc1` [ISONIAZID]: the MIC in series [1] was determined as 0.2 µM.

Turning to `CO[C@H]1/C=C/O[C@@]2(C)Oc3c(C)c(O)c4c(O)c(c(/C=N/N5CCN(C)CC5)c(O)c4c3C2=O)NC(=O)/C(C)=C\C=C\[C@H](C)[C@H](O)[C@@H](C)[C@@H](O)[C@@H](C)[C@H](OC(C)=O)[C@@H]1C` [RIFAMPIN], in series [1], the MIC is 2 µM.

For the compound `CN[C@@H]1[C@H](O[C@H]2[C@H](O[C@H]3[C@H](O)[C@@H](O)[C@H](N=C(N)N)[C@@H](O)[C@@H]3N=C(N)N)O[C@@H](C)[C@]2(O)C=O)O[C@@H](CO)[C@H](O)[C@H]1O` [STREPTOMYCIN], the MIC in series [1] came to 6 µM.
